Results taken from ChEMBL document CHEMBL5136987, “Redesigning of the cap conformation and symmetry of the diphenylethyne core to yield highly potent pan-genotypic NS5A inhibitors with high potency and high resistance barrier” (Eur J Med Chem, 2022).
Activity calls are given as the source filed them. The rule behind the calls is not given here.

What was measured:
[1] = Selectivity index, ratio of CC50 for cytotoxicity against human Huh-5-2 cells carrying HCV subgenomic replicon assessed as decrease in intracellular ATP level to EC50 for antiviral activity against HCV GT-1b Con1 in human Huh-5-2 cells carrying HCV subgenomic replicon assessed as reduction of viral replication; format: toxicity, cell-based; conditions: read-out: Ratio CC50/EC50
[2] = system: Hepatitis C virus; assay: Antiviral activity against HCV GT-1b Con1 in human Huh-5-2 cells carrying HCV subgenomic replicon assessed as reduction of viral replication measured after 72 hrs by Firefly luciferase reporter gene assay; format: functional, organism-based, Hepacivirus hominis; conditions: subtype 1b Con1, Huh-5-2, 72 h
[3] = Cytotoxicity against human Huh-5-2 cells carrying HCV subgenomic replicon assessed as decrease in intracellular ATP level measured after 72 hrs by Glo-max luminescence based assay; format: toxicity, cell-based
[4] = Metabolic stability in human S9 fraction assessed as half life at 10 mg/ml measured upto 120 mins in presence of NADP […] system by LC-MS/MS analysis; format: ADME, subcellular
[5] = system: Hepatitis C virus; assay: Antiviral activity against HCV 3a S52 in human Huh7.5 cells carrying HCV subgenomic replicons assessed as inhibition of viral replication measured after 72 hrs by Firefly luciferase reporter gene assay; format: functional, organism-based, Hepacivirus hominis; conditions: subtype 3a S52, Huh7.5, 72 h
[6] = system: Hepatitis C virus; assay: Antiviral activity against full length HCV GT-1a H77S.3 in human Huh-7-Lunet cells carrying HCV subgenomic replicon assessed as inhibition of viral replication measured after 72 hrs by Firefly luciferase reporter gene assay; format: functional, organism-based, Hepacivirus hominis; conditions: genotype 1a H77S.3, Huh-7, 72 h
[7] = system: Hepatitis C virus; assay: Antiviral activity against HCV 2a JFH1 in human Huh-7 cells carrying HCV subgenomic replicon assessed as inhibition of viral replication measured after 72 hrs by Firefly luciferase reporter gene assay; format: functional, cell-based; conditions: 2a JFH1, Huh-7, 72 h
[8] = system: Hepatitis C virus; assay: Antiviral activity against HCV 4a ED43 in human Huh7.5 cells carrying HCV subgenomic replicon assessed as inhibition of viral replication measured after 72 hrs by Firefly luciferase reporter gene assay; format: functional, organism-based, Hepacivirus hominis; conditions: subtype 4a ED43, Huh7.5, 72 h
[9] = system: Hepatitis C virus; assay: Antiviral activity against HCV GT-1b Con1 in human Huh-5-2 cells carrying HCV subgenomic replicon assessed as drug resistance upto 100X EC50 and measured after 30 passages in presence of G418 by NGS analysis; format: functional, organism-based, Hepacivirus hominis; conditions: subtype 1b Con1, Huh-5-2
[10] = system: Hepatitis C virus; assay: Antiviral activity against HCV GT-1b Con1 in human Huh-5-2 cells carrying HCV subgenomic replicon assessed as drug resistance upto 100X EC50 and measured after 15 weeks in presence of G418 by NGS analysis; format: functional, organism-based, Hepacivirus hominis; conditions: subtype 1b Con1, Huh-5-2
[11] = Selectivity index, ratio of EC50 for antiviral activity against HCV GT-1b Con1 in human Huh-5-2 cells carrying HCV subgenomic replicon assessed as drug resistance measured after 15weeks in presence of G418 by NGS analysis to EC50 for antiviral activity against HCV GT-1b Con1 in human Huh-5-2 cells carrying HCV subgenomic replicon assessed as drug resistance measured after 30 passages in presence of G418; format: functional, Hepatitis C virus subtype 1b
[12] = Metabolic stability in human S9 fraction assessed as clearance at 10 mg/ml measured upto 120 mins in presence of NADP […] system by LC-MS/MS analysis; format: ADME, subcellular
[13] = system: Hepatitis C virus; assay: Antiviral activity against HCV GT-1b Con1 infected in human Huh-5-2 cells carrying HCV subgenomic replicon assessed as reduction of viral replication by RT-qPCR analysis; format: functional, organism-based, Hepacivirus hominis; conditions: subtype 1b Con1, Huh-5-2
[14] = system: Hepatitis C virus; assay: Antiviral activity against HCV GT-1b Con1 infected in human Huh-5-2 cells carrying HCV subgenomic replicon assessed as reduction in NS5A protein level incubated at 3.3 to 30 pM by PI staining based indirect immunofluorescence assay; format: functional, organism-based; conditions: Hepacivirus hominis, subtype 1b Con1, dose 3.3-30 pM

| SMILES | selectivity ratio [1] | EC50 [2] [nM] | CC50 at 72 h [3] [nM] | half-life at 10 mg/ml [4] [min] | other results |
| --- | --- | --- | --- | --- | --- |
| COC(=O)N[C@@H](C(=O)N1CCC[C@H]1C(=O)Nc1ccc(C#Cc2cccc(NC(=O)[C@@H]3CCCN3C(=O)[C@H](NC(=O)OC)c3ccccc3)c2)cc1)c1ccccc1 | > 995 | 1 | > 1000 |  |  |
| C[C@]12CC[C@H]3[C@@H](CCC4=CC(=O)CC[C@@]43C)[C@@H]1CC[C@@H]2O [TESTOSTERONE] |  |  |  | 7.4 |  |
| COC(=O)N[C@H](CC(C)C)C(=O)N1CCC[C@H]1C(=O)Nc1cccc(C#Cc2cccc(NC(=O)[C@@H]3CCCN3C(=O)[C@@H](CC(C)C)NC(=O)OC)c2)c1 | 560000 | 0.175 | 97800 |  |  |
| COC(=O)N[C@@H](C(=O)N1CCC[C@H]1C(=O)Nc1cccc(C#Cc2cccc(NC(=O)[C@@H]3CCCN3C(=O)[C@H](NC(=O)OC)c3ccccc3)c2)c1)c1ccccc1 |  | 0.00123 | 43200 | 20 | EC50 [5]: 0.0559 nM; EC50 [6]: 0.0259 nM; EC50 [7]: 0.123 nM; EC50 [8]: 0.0163 nM; EC50 [9]: 0.00266 nM; EC50 [10]: 0.171 nM; Ratio EC50 [11]: 64.4; microsomal CLint [12]: 35.6 µL/min/mg; EC50 [13]: 0.00157 nM; Activity [14]: Active |
| COC(=O)N[C@@H](CCSC)C(=O)N1CCC[C@H]1C(=O)Nc1cccc(C#Cc2cccc(NC(=O)[C@@H]3CCCN3C(=O)[C@H](CCSC)NC(=O)OC)c2)c1 | > 7350 | 0.136 | > 1000 |  |  |
| COC(=O)N[C@H](CCSC)C(=O)N1CCC[C@H]1C(=O)Nc1cccc(C#Cc2cccc(NC(=O)[C@@H]3CCCN3C(=O)[C@@H](CCSC)NC(=O)OC)c2)c1 | > 1890 | 0.528 | > 1000 |  |  |
| CCCCOC(=O)N[C@H](C(=O)N1CCC[C@H]1C(=O)Nc1cccc(C#Cc2cccc(NC(=O)[C@@H]3CCCN3C(=O)[C@@H](NC(=O)OCCCC)C(C)C)c2)c1)C(C)C | > 173 | 577 | > 100000 |  |  |
| CCOC(=O)N[C@@H](CC(C)C)C(=O)N1CCC[C@H]1C(=O)Nc1cccc(C#Cc2cccc(NC(=O)[C@@H]3CCCN3C(=O)[C@H](CC(C)C)NC(=O)OCC)c2)c1 | 968 | 25 | 24200 |  |  |
| COC(=O)N[C@H](C(=O)N1CCC[C@H]1c1ncc(-c2ccc(-c3ccc(-c4cnc([C@@H]5CCCN5C(=O)[C@@H](NC(=O)OC)C(C)C)[nH]4)cc3)cc2)[nH]1)C(C)C [DACLATASVIR] |  |  |  |  | EC50 [5]: 8.35 nM; EC50 [6]: 0.136 nM; EC50 [7]: 0.0578 nM; EC50 [8]: 0.0212 nM; EC50 [9]: 0.0257 nM; EC50 [10]: 3.39 nM; Ratio EC50 [11]: 132 |
| COC(=O)N[C@@H](CC(C)C)C(=O)N1CCC[C@H]1C(=O)Nc1cccc(C#Cc2cccc(NC(=O)[C@@H]3CCCN3C(=O)[C@H](CC(C)C)NC(=O)OC)c2)c1 | 407000 | 0.133 | 54400 |  |  |
| COC(=O)N[C@@H](C(=O)N1CCC[C@H]1C(=O)Nc1cccc(C#Cc2cccc(NC(=O)[C@@H]3CCCN3C(=O)[C@H](NC(=O)OC)C(C)C)c2)c1)C(C)C | > 891 | 1.12 | > 1000 |  |  |
| COC(=O)N[C@H](C(=O)N1CCC[C@H]1C(=O)Nc1cccc(C#Cc2cccc(NC(=O)[C@@H]3CCCN3C(=O)[C@@H](NC(=O)OC)C(C)C)c2)c1)C(C)C | > 3.25e+06 | 0.0308 | > 100000 |  | EC50 [5]: 2150 nM; EC50 [7]: 233 nM; EC50 [8]: 279 nM |
| COC(=O)N[C@@H](C(=O)N1CCC[C@H]1C(=O)Nc1ccc(C#Cc2ccc(NC(=O)[C@@H]3CCCN3C(=O)[C@H](NC(=O)OC)c3ccccc3)cc2)cc1)c1ccccc1 |  | 0.00259 | 28200 | > 120 | EC50 [5]: 0.316 nM; EC50 [7]: 0.147 nM; EC50 [8]: 0.194 nM; microsomal CLint [12]: < 5.8 µL/min/mg |
| COC(=O)N[C@@H](C(=O)N1CCCC1C(=O)Nc1cccc(C#Cc2cccc(-c3cnc([C@@H]4CCCN4C(=O)[C@H](NC(=O)OC)c4ccccc4)[nH]3)c2)c1)c1ccccc1 (single isomer, unassigned) | > 11000 | 0.0906 | > 1000 | 73.6 | microsomal CLint [12]: 9.4 µL/min/mg |
| CCSC[C@@H](NC(=O)OC)C(=O)N1CCC[C@H]1C(=O)Nc1cccc(C#Cc2cccc(NC(=O)[C@@H]3CCCN3C(=O)[C@@H](CSCC)NC(=O)OC)c2)c1 | 13000 | 0.86 | 11200 |  |  |
| COC(=O)N[C@@H](C(=O)N1CCC[C@H]1C(=O)Nc1cccc(C#Cc2ccc(-c3cnc([C@@H]4CCCN4C(=O)[C@H](NC(=O)OC)c4ccccc4)[nH]3)cc2)c1)c1ccccc1 |  | 0.00114 | 26200 | > 120 | EC50 [5]: 0.229 nM; EC50 [7]: 0.134 nM; EC50 [8]: 0.0504 nM; microsomal CLint [12]: < 5.8 µL/min/mg |
| CCOC(=O)N[C@H](C(=O)N1CCC[C@H]1C(=O)Nc1cccc(C#Cc2cccc(NC(=O)[C@@H]3CCCN3C(=O)[C@@H](NC(=O)OCC)C(C)C)c2)c1)C(C)C | > 8230 | 12.2 | > 100000 |  |  |
| COC(=O)N[C@H](C(=O)N1CCC[C@H]1C(=O)Nc1ccc(C#Cc2cccc(NC(=O)[C@@H]3CCCN3C(=O)[C@@H](NC(=O)OC)C(C)C)c2)cc1)C(C)C | 231000 | 0.179 | 41200 |  |  |
| COC(=O)N[C@H](C(=O)N1CCC[C@H]1C(=O)Nc1cccc(C#Cc2cccc(NC(=O)[C@@H]3CCCN3C(=O)[C@@H](NC(=O)OC)c3ccccc3)c2)c1)c1ccccc1 | 5.56e+06 | 0.0044 | 24200 | 75.9 | microsomal CLint [12]: 9.9 µL/min/mg |
| CCCCOC(=O)N[C@@H](CC(C)C)C(=O)N1CCC[C@H]1C(=O)Nc1cccc(C#Cc2cccc(NC(=O)[C@@H]3CCCN3C(=O)[C@H](CC(C)C)NC(=O)OCCCC)c2)c1 |  | > 1000 | > 1000 |  |  |
| COC(=O)N[C@H](C(=O)N1CCC[C@H]1C(=O)Nc1ccc(C#Cc2ccc(NC(=O)[C@@H]3CCCN3C(=O)[C@@H](NC(=O)OC)C(C)C)cc2)cc1)C(C)C | > 7660 | 0.131 | > 1000 |  | EC50 [5]: 405 nM; EC50 [7]: 60.1 nM; EC50 [8]: 446 nM |
| COC(=O)N[C@H](C(=O)N1CCC[C@H]1C(=O)Nc1cccc(C#Cc2cccc(NC(=O)[C@@H]3CCCN3C(=O)[C@H](NC(=O)OC)c3ccccc3)c2)c1)C(C)C |  | 0.0033 | 33600 | 18.8 | microsomal CLint [12]: 36.4 µL/min/mg |
| CC(C)[C@H](NC(=O)OCc1ccccc1)C(=O)N1CCC[C@H]1C(=O)Nc1cccc(C#Cc2cccc(NC(=O)[C@@H]3CCCN3C(=O)[C@@H](NC(=O)OCc3ccccc3)C(C)C)c2)c1 |  | 999 | > 1000 |  |  |
